Results: publication PMC2892419 (Biochemistry, 2010)

Legend:
[1] = tested on: Sgx9236b; experiment: direct UV assay of deamination, […] nm; assay type: biochemical, Unknown prokaryotic organism (Sargasso Sea metagenome); details: pH 8.5, 30 °C
[2] = tested on: Sgx9236b; experiment: direct UV assay of deamination, […] nm; assay type: biochemical, Unknown prokaryotic organism (Sargasso Sea metagenome); details: pH 8.5, 30 °C; remark: listed apart in the source

Row | Km [2] | SMILES | Km [1]
1 | – | Nc1nc2[nH]c(=O)cnc2c(=O)[nH]1 [I, isoxanthopterin] | 50 ± 10 µM
2 | 90 ± 30 µM | Nc1nc2ncc(C(=O)O)nc2c(=O)[nH]1 [II, pterin-6-carboxylate] | –
